# Reference: patent US8324226B2, “Therapeutic oxy-phenyl-aryl compounds and their use” (Cancer Research Technology Limited, priority 2007, dated 2012)
# Read-outs that look alike come from different tables or passages of the source.
# Molecular target: T1, CHK2 (Homo sapiens, UniProt O96017)
# T1 construct: made in house
# Assay: CHK2 kinase activity assay (DELFIA, phosphorylation of a CDC25C peptide)
# Assay type: biochemical
# Conditions: ATP 30 μM, CHK2 1 nM, read-out: IC50, inhibition of CHK2 kinase activity in vitro
# T1 sequence (O96017 whole entry): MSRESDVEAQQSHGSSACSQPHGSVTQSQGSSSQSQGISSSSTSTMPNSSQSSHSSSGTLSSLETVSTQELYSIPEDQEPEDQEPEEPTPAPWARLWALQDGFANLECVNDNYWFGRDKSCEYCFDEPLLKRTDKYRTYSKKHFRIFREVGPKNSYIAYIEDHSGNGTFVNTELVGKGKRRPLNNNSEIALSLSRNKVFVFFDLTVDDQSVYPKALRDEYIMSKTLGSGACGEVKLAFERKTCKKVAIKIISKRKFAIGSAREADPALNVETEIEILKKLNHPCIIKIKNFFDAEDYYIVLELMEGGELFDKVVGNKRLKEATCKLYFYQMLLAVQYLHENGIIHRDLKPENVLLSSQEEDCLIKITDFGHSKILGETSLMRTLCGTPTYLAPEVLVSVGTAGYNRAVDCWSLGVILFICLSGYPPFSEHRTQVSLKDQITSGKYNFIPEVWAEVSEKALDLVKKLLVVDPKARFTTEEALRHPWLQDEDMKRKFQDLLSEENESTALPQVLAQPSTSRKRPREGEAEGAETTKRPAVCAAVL
IC50 (following further studies),IC50 (first set of tested compounds),SMILES
3 to 30 µM,–,"O=C(O)C1(Nc2nc(-c3cc(Cl)ccc3O)nc3ccccc23)CCNC1 (stereo not drawn) [Compound A-064, 3-(2-(5-Chloro-2-hydroxyphenyl)quinazolin-4-ylamino)pyrrolidine-3-carboxylic acid]"
≤ 0.3 µM,–,"Oc1ccc(F)cc1-c1nc(N[C@H]2CCNC2)c2ccc(F)cc2n1 [Compound A-114, (S)-4-Fluoro-2-(7-fluoro-4-(pyrrolidin-3-ylamino)quinazolin-2-yl)phenol]"
≤ 0.3 µM,< 3 µM,"O=C([C@H]1C[C@H](Nc2nc(-c3ccccc3O)nc3ccccc23)CN1)N1CCCC1 [Compound A-034, ((2R,4S)-4-(2-(2-Hydroxyphenyl)quinazolin-4-ylamino)pyrrolidin-2-yl)(pyrrolidin-1-yl)methanone]"
≤ 0.3 µM,–,"Oc1ccc(F)cc1-c1nc(N[C@H]2CCNC2)c2ccc(-c3cn[nH]c3)cc2n1 [Compound A-068, (S)-2-(7-(1H-Pyrazol-4-yl)-4-(pyrrolidin-3-ylamino)quinazolin-2-yl)-4-fluorophenol]"
3 to 30 µM,3 to 30 µM,"Oc1ccccc1-c1nc(N[C@H]2CCN(Cc3ccccc3)C2)c2ccccc2n1 [Compound A-011, 2-[4-((S)-1-Benzylpyrrolidin-3-ylamino)-quinazolin-2-yl]-phenol]"
≤ 0.3 µM,–,"COCCOc1cc2c(N[C@H]3CCNC3)nc(-c3cc(F)ccc3O)nc2cc1OC [Compound A-103, (S)-4-Fluoro-2-(7-methoxy-6-(2-methoxyethoxy)-4-(pyrrolidin-3-ylamino)quinazolin-2-yl)phenol]"
≤ 0.3 µM,< 3 µM,"COC(=O)c1ccc(O)c(-c2nc(N[C@H]3CCNC3)c3ccccc3n2)c1 [Compound A-033, (S)-Methyl 4-hydroxy-3-(4-(pyrrolidin-3-ylamino)quinazolin-2-yl)benzoate]"
≤ 0.3 µM,–,"CN(C)C(=O)[C@H]1C[C@H](Nc2nc(-c3cc(F)ccc3O)nc3cc(CCCO)ccc23)CN1 [Compound A-061, (2R,4S)-4-(2-(5-Fluoro-2-hydroxyphenyl)-7-(3-hydroxypropyl)quinazolin-4-ylamino)-N,N-dimethylpyrrolidine-2-carboxamide]"
≤ 0.3 µM,< 3 µM,"OCC#Cc1ccc2nc(-c3ccccc3O)nc(N[C@H]3CCNC3)c2c1 [Compound A-052, (S)-2-(6-(3-hydroxyprop-1-ynyl)-4-(pyrrolidin-3-ylamino)quinazolin-2-yl)phenol]"
≤ 0.3 µM,< 3 µM,"CCN(C)C(=O)[C@H]1C[C@H](Nc2nc(-c3ccccc3O)nc3ccccc23)CN1 [Compound A-050, (2R,4S)-N-Ethyl-4-(2-(2-hydroxyphenyl)quinazolin-4-ylamino)-N-methylpyrrolidine-2-carboxamide]"
